According to US10206916B2, “Cabozantinib salts and their use as anti-cancer agents” (Sandoz AG, priority 2015, dated 2019):

Experiments:
[1] = Thermogravimetric/differential thermal analysis (TG/DTA); format: physicochemical
Description: B) Organic Solvent Content: Thermogravimetric Analysis (TGA) Approximately, 5-10 mg of material was accurately weighed into an open aluminium pan and loaded into a simultaneous thermogravimetric/differential thermal analyser (TG/DTA) and held at room temperature. The sample was then heated at a rate of 10° C./min from 25° C. to 300° C. during which time the change in sample weight was recorded along with any differential thermal events (DTA). Nitrogen was used as the purge gas, at a flow rate of 100 cm^3/min.

[2] = Aqueous solubility measurement (slurry in deionized water, HPLC analysis); format: physicochemical
Description: HPLC analysis was performed according to the following conditions: • Instrument: Agilent 1100 • Column: Grace Smart RP 185μ 150×4.6 mm • Column Temperature: 30° C. UV wavelength: 249 nm • Injection Volume: 10 μl • Flow Rate: 1.2 ml/min • Mobile Phase A: 0.1% Phosphoric acid • Mobile Phase B: 0.1% Phosphoric acid in acetonitrile • Gradient program: H) Aqueous Solubility Measurements Each salt was individually slurried in deionized water and subjected to shaking for ca. 24 h at ambient temperature (ca. 22° C.). The resulting saturated solutions were filtered and analyzed by HPLC analysis. XRPD analysis was carried out on any solid retained after the solubility experiment.

[3] = Dynamic vapour sorption (DVS) with post-DVS XRPD; format: physicochemical; settings: for hygroscopicity by DVS: 20% to 70% RH, non-hygroscopic = weight gain of less than 2 weight-%; for Post-DVS XRPD analysis: after DVS sorption/desorption cycle; for hygroscopicity compared with cabozantinib malate: based on DVS isotherm; for water up take (weight gain) by DVS: between 20% and 70% RH, ca. 25° C.
Description: XRPD analysis was carried out on a Siemens D5000 diffractometer, scanning the samples between 3 and 50 or 30°2-theta. For samples of less than 100 mg, 10-20 mg of material was gently compressed onto a glass disc inserted into an XRPD sample holder. For samples of more than 100 mg, ca. 100 mg of material was gently compressed into a plastic XRPD sample holder to ensure a smooth sample surface, just above the level of the sample holder. The sample was then loaded into the diffractometer running in reflection mode and analyzed using the following experimental conditions. C) Water Content: Dynamic Vapour Sorption (DVS) Approximately 10-20 mg of sample was placed into a vapour sorption balance pan and loaded into a DVS-1 dynamic vapour sorption balance by Surface Measurement Systems. The sample was subjected to a ramping profile from 20-90% relative humidity (RH) at 10% increments, maintaining the sample at each step until a stable weight had been achieved (99.5% step completion). After completion of the sorption cycle, the sample was dried using the same procedure, but all the way down to 0% RH and finally taken back to the starting point of 20% RH. The weight change during the sorption/desorption cycles were plotted, allowing for the hygroscopic nature of the sample to be determined.

[4] = cited from earlier work
[5] = reported in WO2010/083414; cited from earlier work
[6] = listed as cabozantinib succinate Form A, succinate
[7] = listed as crystalline succinate salt of cabozantinib, succinate
[8] = listed as acetate salt, acetate

COc1cc2nccc(Oc3ccc(NC(=O)C4(C(=O)Nc5ccc(F)cc5)CC4)cc3)c2cc1OC.O=C(O)CCC(=O)O [Form A, N-{4-[(6,7-dimethoxy-4-quinolinyl)oxy]phenyl}-N′-(4-fluorophenyl)-1,1-cyclopropanedicarboxamide succinate]
TG/DTA weight loss corresponding to the endotherm in the DTA trace at ca. 173° C. ([1]; heating rate 10° C./min, at ca. 173° C., listed as cabozantinib succinate Form A, succinate): ~1 weight-% | TG/DTA weight loss below ca. 173° C. ([1]; heating rate 10° C./min, below ca. 173° C., listed as cabozantinib succinate Form A, succinate): < 0.6 weight-% | solubility compared to cabozantinib malate ([2]; comparison in words, no malate value printed): improved solubility | solid form after the solubility experiment (XRPD) ([2]; solid retained after solubility experiment): consistent with the input succinate salt | solubility ([2]; thermodynamic from solid, deionized water, shaking ca. 24 h, ambient temperature (ca. 22° C.), HPLC analysis): 164 µg/mL | hygroscopicity by DVS [3]: non-hygroscopic | Post-DVS XRPD analysis [3, 6]: remained crystalline and consistent with the input form | Post-DVS XRPD analysis [3, 7]: remained crystalline and was consistent with the input form | hygroscopicity compared with cabozantinib malate [3, 6]: less hygroscopic | hygroscopicity compared with cabozantinib malate ([3]; succinate): lower hygroscopicity | water up take (weight gain) by DVS [3, 6]: about 0.03 weight-% | water up take (weight gain) by DVS [3, 7]: ca. 0.03 weight-% | water up take (weight gain) by DVS ([3]; succinate): 0.03 weight-%

COc1cc2nccc(Oc3ccc(NC(=O)C4(C(=O)Nc5ccc(F)cc5)CC4)cc3)c2cc1OC [Cabozantinib, N-{4-[(6,7-dimethoxy-4-quinolinyl)oxy]phenyl}-N′-(4-fluorophenyl)-1,1-cyclopropanedicarboxamide]
solubility (BCS classification) [4]: low solubility

COc1cc2nccc(Oc3ccc(NC(=O)C4(C(=O)Nc5ccc(F)cc5)CC4)cc3)c2cc1OC [(L)-malate, reference compound]
TG/DTA weight loss corresponding to the endotherm in DTA trace at ca. 178° C. ([1]; at ca. 178° C.): C. and 1% loss | TG/DTA weight loss below ca. 178° C. ([1]; below ca. 178° C.): 1.2 weight-% loss | weight gain relative to cabozantinib succinate Form A ([3]; DVS, 20 to 70% RH): 10 fold | water up take (weight gain) by DVS [3]: 0.3 weight-% | water up take (weight gain) by DVS ([3]; listed as L-malate): about 0.3 weight-% | water up take (weight gain) by DVS ([3]; listed as cabozantinib malate): about 0.3 weight-% | hygroscopicity as reported [5]: non-hygroscopic | solubility compared with cabozantinib free base [4]: enhanced solubility

CC(=O)O.COc1cc2nccc(Oc3ccc(NC(=O)C4(C(=O)Nc5ccc(F)cc5)CC4)cc3)c2cc1OC [Form A-1, N-{4-[(6,7-dimethoxy-4-quinolinyl)oxy]phenyl}-N′-(4-fluorophenyl)-1,1-cyclopropanedicarboxamide acetate]
hygroscopicity by DVS [3]: non-hygroscopic | Post-DVS XRPD analysis ([3]; acetate): remained crystalline and consistent with the input form | Post-DVS XRPD analysis [3, 8]: remained crystalline | hygroscopicity compared with cabozantinib malate [3]: less hygroscopic | water up take (weight gain) by DVS [3, 8]: ~0.1 weight-%
